{"source": "patent US12472160B2", "about": "“Modified-release tiopronin compositions, kits and methods for treating cystinuria and related disorders” (ALTIBIO, INC., priority 2017, dated 2025)", "origin": "cited, not measured here", "key": {"[1]": {"settings": "cited from earlier work"}, "[2]": {"settings": "cited from earlier work", "remark": "listed apart in the source"}}, "data": [{"smiles": "CC(C)(S)[C@@H](N)C(=O)O", "note": "[D-penicillamine]", "values": [{"measurement": "solubility of di-sulfide complex relative to cystine", "setting": "[1]", "value": 50, "unit": "times"}, {"measurement": "patients with severe side effects limiting use / who cannot tolerate the drug", "setting": "[2]; human, in vivo", "value": "50-70%"}, {"measurement": "bioavailability", "setting": "[2]; patients with malabsorption states, presence of antacids, or after a large meal", "value": "dramatically decreases"}]}]}
